Results reported in US7439362B2, “Piperazinyl-or piperidinylamine-sulfamic acid amides as inhibitors of steroid sulfatase” (Novartis AG, priority 2002, dated 2008).

Experiments:
[1] = target: T1, steroid sulfatase in human skin homogenate (Homo sapiens, UniProt P08842); assay: Assay Using Human Skin Homogenate ([3H]DHEAS cleavage); type: biochemical; settings: human cadaver skin homogenate; DHEAS substrate; 18 hrs at 37° C.
T1 construct: Frozen specimens of human cadaver skin; from tissue; host or cells: human cadaver skin, minced and suspended in Triton X-100 buffer
T1 sequence (P08842 22-583): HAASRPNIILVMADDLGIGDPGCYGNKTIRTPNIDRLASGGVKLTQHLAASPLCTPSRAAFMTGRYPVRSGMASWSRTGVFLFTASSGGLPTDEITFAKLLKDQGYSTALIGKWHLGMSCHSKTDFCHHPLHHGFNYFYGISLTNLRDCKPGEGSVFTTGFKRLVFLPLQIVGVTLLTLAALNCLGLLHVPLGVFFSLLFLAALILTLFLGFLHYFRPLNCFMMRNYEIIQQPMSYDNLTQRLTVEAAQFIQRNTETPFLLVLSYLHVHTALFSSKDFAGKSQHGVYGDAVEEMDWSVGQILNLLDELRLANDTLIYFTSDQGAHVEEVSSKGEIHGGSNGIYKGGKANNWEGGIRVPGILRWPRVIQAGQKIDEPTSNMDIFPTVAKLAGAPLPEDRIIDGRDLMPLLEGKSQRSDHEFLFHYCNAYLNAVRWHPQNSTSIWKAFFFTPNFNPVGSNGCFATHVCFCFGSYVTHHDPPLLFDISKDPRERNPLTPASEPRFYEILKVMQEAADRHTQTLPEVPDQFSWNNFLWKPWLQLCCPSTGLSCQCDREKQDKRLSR
Protocol: Frozen specimens of human cadaver skin (about 100 mg per sample) are minced Into small pieces (about 1×1 mm) using sharp scissors. The pieces obtained are suspended in ten volumes (w/w) of buffer (20 mM Tris-HCl, pH 7.5), containing 0.1% Triton X-100. Test compounds (e.g. compounds of the present invention) are added at graded concentrations from stock solutions In ethanol or DMSO. Second, DHEAS as the substrate is added (1 μC/ml [^3H]DHEAS, specific activity: about 60 Ci/mmol, and 20 μM unlabeled DHEAS).
Samples are incubated for 18 hrs at 37° C. At the end of the Incubation period, 50 μl of 1 M Tris, pH 10.4 and 3 ml of toluene are added. A 1-ml aliquot of the organic phase is removed and subjected to liquid scintillation counting. The determined dpm-values in the aliquots are converted to nmol of DHEA cleaved per g of skin per hour.

[2] = target: T2, purified human steroid sulfatase (Homo sapiens, UniProt P08842); assay: Assay of Human Steroid Sulfatase (4-methylumbelliferyl sulfate cleavage, fluorescence); type: biochemical; settings: purified human placental enzyme; 4-methylumbelliferyl sulfate substrate; 37° C., 1 hour
T2 construct: Human placenta is obtained freshly after delivery; from tissue; host or cells: human placenta (microsomes, Triton X-100 extract, chromatographically purified)
T2 sequence (P08842 22-583): T1 sequence (P08842 22-583)
Protocol: Human placenta is obtained freshly after delivery and stripped of membranes and connective tissues. For storage, the material is frozen at −70° C. After thawing, all further steps are carried out at 4° C., while pH values are adjusted at 20° C. 400 g of the tissue is homogenized in 1.2 l of buffer A (50 mM Tris-HCl, pH 7.4, 0.25 M sucrose). The homogenate obtained is centrifuged at 10,000×g for 45 minutes. The supernatant is set aside and the pellet obtained is re-homogenized in 500 ml of buffer A. After centrifugation, the two supernatants obtained are combined and subjected to ultracentrifugation (100,000×g, 1 hour). The pellet obtained is resuspended in buffer A and centrifugation is repeated. The pellet obtained is suspended in 50 ml of 50 mM Tris-HCl, pH 7.4 and stored at −20° C. until further work-up. […]
It is known that purified human steroid sulfatase not only is capable to cleave steroid sulfates, but also readily cleaves aryl sulfates such as 4-methylumbelliferyl sulfate which is used in the present test system as an activity indicator. […]
Plates are incubated at 37° C. for 1 hour. […] Fluorescence intensity is determined in a Titertek Fluoroskan. […]
[formula] wherein I100 is the intensity observed in the absence of inhibitor and s is a slope factor. Estrone sulfamate is used as a reference compound and its IC50 value is determined in parallel to all other test compounds. […]

NC(=O)c1ccc(C(F)(F)F)cc1N1CCC(NS(=O)(=O)NC(=O)c2cc(C(F)(F)F)cc(C(F)(F)F)c2)CC1 [Example 1, N-[[4-[1-(2-Aminocarbonyl-5-trifluoromethyl-phenyl)]-piperidinyl]-amino]-sulfonyl-3,5-bis-trifluoromethyl-benzamide]
melting point: 192 to 195 °C
IC50 [1]: 30 to 270 nM

CC12CCC3c4ccc(OS(N)(=O)=O)cc4CCC3C1CCC2=O (stereo not drawn) [estrone sulfamate]
IC50 [2]: ~60 nM
